Test results taken from patent publication US11773078B2, “Furin inhibitors” (Glaxosmithkline Intellectual Property Development Limited, priority 2018, dated 2023).
Structures can show the parent of a compound that is named as a salt.

Tests used:
[1] = biological target: T1, furin (endogenous protease) in U20S cells (Homo sapiens, UniProt P09958); experiment: Furin cell-based assay (image-based, Golgi-targeted GFP with BMP10 furin/PCSK cleavage site); settings: 24-hour incubation, read-out: furin golgi cell pXC50 (converted);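 note: Read-out is mean GFP fluorescence of Golgi puncta per cell by high-content imaging, retained when furin inhibited, over an eleven-point 0.00017–10 µM series, four-parameter fit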
T1 construct: the endogenous protease cleaves GFP; endogenous in cells; host or cells: U2OS cells transduced with a BacMam reporter
T1 sequence (P09958 108-794): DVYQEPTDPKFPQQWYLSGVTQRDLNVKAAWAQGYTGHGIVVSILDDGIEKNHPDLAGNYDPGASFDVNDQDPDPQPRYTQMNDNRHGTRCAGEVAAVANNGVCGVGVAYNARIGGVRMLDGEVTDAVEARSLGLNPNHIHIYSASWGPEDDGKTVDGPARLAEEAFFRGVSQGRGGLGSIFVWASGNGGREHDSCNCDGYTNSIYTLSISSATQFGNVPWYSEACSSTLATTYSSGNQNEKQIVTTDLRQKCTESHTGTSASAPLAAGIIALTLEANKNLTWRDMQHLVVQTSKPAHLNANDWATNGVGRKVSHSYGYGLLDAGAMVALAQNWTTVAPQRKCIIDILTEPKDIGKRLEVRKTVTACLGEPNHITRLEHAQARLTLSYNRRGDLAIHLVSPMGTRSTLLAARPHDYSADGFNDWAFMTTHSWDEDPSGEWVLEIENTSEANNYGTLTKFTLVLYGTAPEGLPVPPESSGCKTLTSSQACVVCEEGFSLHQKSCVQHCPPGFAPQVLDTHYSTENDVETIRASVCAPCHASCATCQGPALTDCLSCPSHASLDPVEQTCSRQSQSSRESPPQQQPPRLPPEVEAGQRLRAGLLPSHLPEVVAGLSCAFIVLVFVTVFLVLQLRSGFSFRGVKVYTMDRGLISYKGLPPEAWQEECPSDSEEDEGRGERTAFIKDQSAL

[2] = biological target: T2, Furin (108-574-Tev-Flag-His) enzyme (Homo sapiens, UniProt P09958); experiment: Furin enzyme assay; format: biochemical
T2 construct: Furin (108-574-Tev-Flag-His) enzyme was expressed and purified from CHO cells; TEV cleavage site (C); FLAG (C); His (C); made in house; host or cells: CHO cells
T2 sequence (P09958 108-574): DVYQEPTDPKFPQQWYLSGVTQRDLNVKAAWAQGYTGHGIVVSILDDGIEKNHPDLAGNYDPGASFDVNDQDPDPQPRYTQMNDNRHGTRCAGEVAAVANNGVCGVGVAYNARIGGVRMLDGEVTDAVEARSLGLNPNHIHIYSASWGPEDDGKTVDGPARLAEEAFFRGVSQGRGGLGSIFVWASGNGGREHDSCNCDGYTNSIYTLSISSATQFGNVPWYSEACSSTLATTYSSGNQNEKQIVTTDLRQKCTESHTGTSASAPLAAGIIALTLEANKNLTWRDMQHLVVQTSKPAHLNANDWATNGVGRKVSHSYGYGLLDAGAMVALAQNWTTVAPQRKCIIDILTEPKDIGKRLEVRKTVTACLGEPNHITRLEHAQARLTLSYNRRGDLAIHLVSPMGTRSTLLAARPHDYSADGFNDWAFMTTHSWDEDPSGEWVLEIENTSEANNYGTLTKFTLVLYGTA
Procedure, shortened: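 Compounds ran as 11-point threefold dilutions (0.00017–10 μM final) against 40 pM furin, purified from CHO cells, for 2 h at room temperature. Buffer: 100 mM HEPES pH7.5 with 1 mM CaCl2 and 0.005% Triton X-100. Envision readout. Four-parameter curve gives pXC50.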

| SMILES | EC50 [1] | furin enzyme pIC50 [2] |
| --- | --- | --- |
| CC(CCN1CCN(c2ncc(Oc3cc(CN4CCCC4)cc(-c4cc(Cl)cc(Cl)c4)n3)cn2)CC1)C(=O)O (centres unmarked) [Example 83, 4-(4-(5-((6-(3,5-dichlorophenyl)-4-(pyrrolidin-1-ylmethyl)pyridin-2-yl)oxy)pyrimidin-2-yl)piperazin-1-yl)-2-methylbutanoic acid] | 0.0501 µM | 8.9 |
| O=C(O)CCN1CCN(c2ncc(Oc3cc(CN4CCC(CNC(=O)C5CC5)CC4)cc(-c4cc(Cl)cc(Cl)c4)n3)cn2)CC1 [Example 84, 3-(4-(5-((4-((4-(cyclopropanecarboxamidomethyl)piperidin-1-yl)methyl)-6-(3,5-dichlorophenyl)pyridin-2-yl)oxy)pyrimidin-2-yl)piperazin-1-yl)propanoic acid] | 0.00794 µM | 9.3 |
| CP(C)(=O)CC1CCN(Cc2cc(Oc3ccc(N4CCN(CCC(=O)O)CC4)nc3)nc(-c3cc(Cl)cc(Cl)c3)c2)CC1 [Example 85, 3-(4-(5-((6-(3,5-dichlorophenyl)-4-((4-((dimethylphosphoryl)methyl)piperidin-1-yl)methyl)pyridin-2-yl)oxy)pyridin-2-yl)piperazin-1-yl)propanoic acid] | 0.158 µM | 8.1 |
| NC(=O)CC1CCN(Cc2cc(Oc3cnc(N4CCNCC4)nc3)nc(-c3cc(Cl)cc(Cl)c3)c2)CC1 [Example 86, 2-(1-((2-(3,5-Dichlorophenyl)-6-((2-(piperazin-1-yl)pyrimidin-5-yl)oxy)pyridine-4-yl)methyl)piperidin-4-yl)acetamide, 4 hydrochloride] | 0.01 µM | 8.9 |
| CN1CCN(c2ncc(Oc3cc(CN4CCC(CCS(N)(=O)=O)CC4)cc(-c4cc(Cl)cc(Cl)c4)n3)cn2)CC1 [Example 87, 2-(1-((2-(3,5-Dichlorophenyl)-6-((2-(4-methylpiperazin-1-yl)pyrimidin-5-yl)oxy)pyridin-4-yl)methyl)piperidin-4-yl)ethanesulfonamide, 4 hydrochloride] | 0.00398 µM | 9 |
| CC(=O)NCC1CCN(Cc2cc(Oc3cnc(N4CCN(CCC(N)=O)CC4)nc3)nc(-c3cc(Cl)cc(Cl)c3)c2)CC1 [Example 88, 3-(4-(5-((4-((4-(Acetamidomethyl)piperidin-1-yl)methyl)-6-(3,5-dichlorophenyl)pyridin-2-yl)oxy)pyrimidin-2-yl)piperazin-1-yl)propanamide] | 0.00501 µM | 9.1 |
| CC(=O)NCC1CCN(Cc2cc(Oc3ccc(N4CCNCC4)nc3)nc(-c3cc(Cl)cc(Cl)c3)n2)CC1 [Example 89, N-((1-((2-(3,5-Dichlorophenyl)-6-((6-(piperazin-1-yl)pyridin-3-yl)oxy)pyrimidin-4-yl)methyl)piperidin-4-yl)methyl)acetamide, 4 hydrochloride] | 0.0126 µM | 8 |
| CC(=O)NCC1CCN(Cc2cc(-c3cc(Cl)cc(Cl)c3)nc(Oc3ccc(N4CCNCC4)nc3)n2)CC1 [Example 90, N-((1-((6-(3,5-Dichlorophenyl)-2-((6-(piperazin-1-yl)pyridin-3-yl)oxy)pyrimidin-4-yl)methyl)piperidin-4-yl)methyl)acetamide] | 0.00794 µM | 8.5 |
| CC(=O)NCC1(O)CCN(Cc2cc(Oc3cnc(N4CCNCC4)c(F)c3)nc(-c3cc(Cl)cc(Cl)c3)c2)CC1 [Example 91, N-((1-((2-(3,5-Dichlorophenyl)-6-((5-fluoro-6-(piperazin-1-yl)pyridin-3-yl)oxy)pyridin-4-yl)methyl)-4-hydroxypiperidin-4-yl)methyl)acetamide, 4 hydrochloride] | 0.0398 µM | 8.4 |
| CC(=O)NCC1CCN(Cc2cc(Oc3cnc(N4CCNCC4)nc3)nc(-c3cc(Cl)cc(Cl)c3)c2)CC1 [Example 92, N-((1-((2-(3,5-Dichlorophenyl)-6-((2-(piperazin-1-yl)pyrimidin-5-yl)oxy)pyridin-4-yl)methyl)piperidin-4-yl)methyl)acetamide] | 0.00316 µM | 8.9 |
| CC(=O)NCC1CCN(Cc2cc(Oc3cnc(N4CCN(CCO)CC4)nc3)nc(-c3cc(Cl)cc(Cl)c3)c2)CC1 [Example 93, N-((1-((2-(3,5-dichlorophenyl)-6-((2-(4-(2-hydroxyethyl)piperazin-1-yl)pyrimidin-5-yl)oxy)pyridin-4-yl)methyl)piperidin-4-yl)methyl)acetamide, 4 hydrochloride] | 0.00501 µM | 8.9 |
| CNC(=O)CCN1CCN(c2ncc(Oc3cc(CN4CCC(CNC(C)=O)CC4)cc(-c4cc(Cl)cc(Cl)c4)n3)cn2)CC1 [Example 94, 3-(4-(5-((4-((4-(Acetamidomethyl)piperidin-1-yl)methyl)-6-(3,5-dichlorophenyl)pyridin-2-yl)oxy)pyrimidin-2-yl)piperazin-1-yl)-N-methylpropanamide, 4 hydrochloride] | 0.00501 µM | 8.9 |
| CC(=O)NCC1CCN(Cc2cc(Oc3cnc(N4CCN(C(C)CC(N)=O)CC4)nc3)nc(-c3cc(Cl)cc(Cl)c3)c2)CC1 (centres unmarked) [Example 95, 3-(4-(5-((4-((4-(Acetamidomethyl)piperidin-1-yl)methyl)-6-(3,5-dichlorophenyl)pyridin-2-yl)oxy)pyrimidin-2-yl)piperazin-1-yl)butanamide, 4 hydrochloride] | 0.00158 µM | 9.9 |
| CC(=O)NCC1CCN(Cc2cc(Oc3cnc(N4CCN(CCCC(N)=O)CC4)nc3)nc(-c3cc(Cl)cc(Cl)c3)c2)CC1 [Example 96, 4-(4-(5-((4-((4-(Acetamidomethyl)piperidin-1-yl)methyl)-6-(3,5-dichlorophenyl)pyridin-2-yl)oxy)pyrimidin-2-yl)piperazin-1-yl)butanamide] | 0.00158 µM | 9 |
| CNC1CCN(c2ccc(Oc3cc(CNCCOC)cc(-c4cc(Cl)cc(Cl)c4)c3)cn2)CC1 [Example 97, 1-(5-((3′,5′-Dichloro-5-(((2-methoxyethyl)amino)methyl)-[1,1′-biphenyl]-3-yl)oxy)pyridin-2-yl)-N-methylpiperidin-4-amine] | 0.0251 µM | 8.4 |
| CNCc1cc(Oc2ccc(N3CCNCC3)nc2)cc(-c2cc(Cl)cc(Cl)c2)c1 [Example 98, 1-(3′,5′-Dichloro-5-((6-(piperazin-1-yl)pyridin-3-yl)oxy)-[1,1′-biphenyl]-3-yl)-N-methylmethanamine, 3 hydrochloride] | 0.0398 µM | 8.7 |
| NCCNc1ccc(Oc2cc(CN3CCOCC3)cc(-c3cc(Cl)cc(Cl)c3)c2)cn1 [Example 99, N^1-(5-((3′,5′-Dichloro-5-(morpholinomethyl))-[1,1′-biphenyl]-3-yl)oxy)pyridin-2-yl)ethane-1,2-diamine, 3 hydrochloride] | 0.251 µM | 7.2 |
| CNCc1cc(Oc2ccc(N3CCC(N)CC3)nc2)cc(-c2cc(Cl)cc(Cl)c2)c1 [Example 100, 1-(5-((3′,5′-Dichloro-5-((methylamino)methyl)-[1,1′-biphenyl]-3-yl)oxy)pyridin-2-yl)piperidin-4-amine, 3 hydrochloride] | 0.0794 µM | 8.8 |
| CNCc1cc(Oc2ccc(NCCCN)nc2)cc(-c2cc(Cl)cc(Cl)c2)c1 [Example 101, N^1-(5-((3′,5′-Dichloro-5-((methylamino)methyl)-[1,1′-biphenyl]-3-yl)oxy)pyridin-2-yl)propane-1,3-diamine] | 3.16 µM | 8.6 |
